Measurements: patent publication US7919260B2, “Screening methods using GPR52” (Takeda Pharmaceutical Company Limited, priority 2005, dated 2011)

Columns and labels:
Format in all cases: cell-based
[1] = tested on: NMDA-type glutamate receptor; experiment: Activation of NMDA-type glutamate receptor in neurons from rat embryonic cerebral cortex (fura-2 intracellular calcium, AQUACOSMOS)
Experimental: Neurons from rat embryonic cerebral cortex (CAMBREX) were cultured in a 48-well poly-L-lysine (Sumitomo Bakelite) for 14-15 days by a modification of the method attached. A neuron culture medium (Dainippon Pharmaceutical) was used as a medium, unless otherwise indicated. Changes in intracellular calcium levels were assayed using AQUACOSMOS (Hamamatsu Photonics). For assaying the changes in intracellular calcium levels, the following pretreatment was made. First, in order to add fluorescence dye fura-2/AM (Molecular Probes) to cells, an assay buffer used to wash the cells immediately before the assay was prepared. To 1000 ml of HBSS (Invitrogen) supplemented with 20 ml of 1M HEPES (pH7.4) (DOJIN) (hereinafter HBSS/HEPES solution), 10 ml of a solution prepared by dissolving 710 mg of Probenecid (Sigma) in 5 ml of 1N NaOH and further adding 5 ml of the HBSS/HEPES solution thereto was added, and the resulting solution was used as the assay buffer. Next, an equal volume of 20% Pluronic acid (Molecular Device) was added to and mixed with the fura-2/AM stock solution. The mixture was dissolved in the assay buffer in a final concentration of 5 μM fura-2 to prepare the fura-2 fluorescence dye solution. The fura-2 fluorescence dye solution was loaded on neurons from the rat embryonic cerebral cortex, followed by incubation for 30-60 minutes. Thereafter, the changes in calcium levels in the individual neurons were determined using AQUACOSMOS (Hamamatsu Photonics).
Activation of the NMDA-type glutamate receptor in the cerebral cortex was analyzed by the procedures described in EXAMPLE 9.

[2] = tested on: NMDA-type glutamate receptor; experiment: Phosphorylation (Ser897) of NMDA-type glutamate receptor in rat primary culture neurons (western blot, Anti-phospho-NR1); settings: 50 μM Compound A; cells recovered 1, 2, 5, 15 and 30 minutes after
Experimental: Using primary culture neurons from the rat […], phosphorylation of the NMDA-type glutamate receptor by GPR52 agonists was studied. Rat (Wistar, Charles River Japan) embryonic brain (E19) was dissected to isolate the cerebral cortex, and the cells were prepared using Neuron Dispersion Set (Dainippon Pharmaceutical). The cells were plated on a 24-well poly-L-lysine plate (3×10^5 cells/well) and incubated for 2 weeks in Neuro Basal (B27, containing 0.5 mM glutamine, GIBCO) medium. Compound A was added to the above cells at a final concentration of 50 μM, and the cells were recovered 1, 2, 5, 15 and 30 minutes after. After the cells were lysed in Invitrogen's NuPAGE Sample Buffer (containing DTT), western blot analysis was performed using antibody Anti-phospho-NR1 (Ser897) (Upstate).

GPR52 [3] = biological target: T1, GPR52 (Homo sapiens, UniProt Q9Y2T5); experiment: Screening of GPR52 agonists: intracellular cAMP in GPR52 stable expression cells (AlphaScreen cAMP Assay Kit); design: expressed in transfected cells; settings: secondary screening at 100-0.1 μM
Experimental: The GPR52 stable expression cells prepared in REFERENCE EXAMPLE 1 were incubated in a 150 cm^2 at 37° C. overnight in a CO2 incubator. After the incubation, the cells were detached with 0.5 mM EDTA/PBS, and washed in PBS. The cells were then suspended at a density of 1×10^7 cells/ml in Buffer 1 (HBSS+0.1% BSA, 25 mM HEPES, pH 7.3, 0.5 mM IBMX). This cell suspension, 440 μl, was mixed with 22 μl of Anti-cAMP Acceptor Beads of AlphaScreen cAMP Assay Kit (Perkin Elmer) and 638 μl of Buffer 1. The resulting mixture was dispensed on a white 96-well plate (Costar) by 10 μl each. Next, 10 μl each of the test compound dilutions in Buffer 1 was added to each well. After shaking at room temperature for 30 minutes, 20 μl of Biotinyl cAMP and 82 μl of Streptavidin Donor Beads of AlphaScreen cAMP Assay Kit was added to 40 ml of Buffer 2 (HBSS+0.1% BSA, 25 mM HEPES, pH 7.3, 1.5% Tween 20) and the resulting mixture was added to all wells of the plate by 30 μl each. The plate was kept shaken at room temperature for 3 hours and the fluorescence intensities were measured by Fusion α (Perkin Elmer).
Secondary screening was applied to these compounds in various concentrations (100 μM, 30 μM, 10 μM, 3 μM, 1 μM and 0.1 μM) using the procedures described in EXAMPLE 11 (detailed analysis).

GPR52 [4] = biological target: T1, GPR52; experiment: Changes in intracellular calcium levels on FLIPR in CNGC-E583M/HEK293 cells transiently expressing human GPR52; design: expressed in transfected cells; host or cells: CNGC-E583M/HEK293 cells (HEK293 stably expressing rat olfactory cyclic nucleotide-gated channel E583M), transient transfection of pAKKO-GPR52; settings: human GPR52 transiently expressed in CNGC-E583M/HEK293; reserpine 1.0-100 μM (FIG. 1), methoctramine 15-75 μM (FIG. 2); no such response in control cells transfected with other receptor vector
Experimental: The stable expression cell line (CNGC-E583M/HEK293 cell line) of rat olfactory cyclic nucleotide-gated channel (CNGC-E583M), which was used as a host cell, was obtained by inserting rat olfactory cyclic nucleotide-gated channel (CNGC-E583M) cDNA into expression vector pcDNA3.1(+) neo (Invitrogen) (pcDNA3.1-CNGC), transfecting pcDNA3.1-CNGC into HEK293 cells (purchased from ATCC) in a conventional manner, and incubating the cells in DMEM (Dulbecco's modified Eagle medium) supplemented with 10% fetal calf serum (Invitrogen) and 800 mg/l geneticin (Invitrogen) under 5% CO2 at 37° C. [Fagan et al., FEBS, 500, 85 (2001); Reinescheid et al., European Journal of Pharmacology, 478, 27 (2003)]. The CNGC-E583M/HEK293 cells were incubated in a collagen-coated 75 cm^2 flask. […] First, an assay buffer was prepared to add fluorescence dye Fluo-3AM (DOJIN) to the cells or to wash the cells immediately before the FLIPR assay. […] The mixture was then added to 10.6 ml of the assay buffer supplemented with 105 μl of fetal calf serum, and 20 μl of 500 mM IBMX/DMSO was further added to prepare a fluorescence dye solution. The fluorescence dye solution was dispensed onto the cell plate by 100 μl each/well using an 8-channel pipette and the cells were incubated at 37° C. in a 5% CO2 incubator for an hour (dye loading). […]

human GPR52-GFP = biological target: T2, human GPR52-GFP (Homo sapiens, UniProt Q9Y2T5, I167T); experiment: Internalization of GPR52-GFP fusion protein expressed in CHO cells (confocal microscopy); settings: reserpine 10^-4 M, 30 minutes after addition
T2 construct: expressed in transfected cells; host or cells: CHO cells, vector pAKKO-111H
Description: An expression plasmid was constructed to express a fused protein of Green Fluorescent Protein (GFP) cDNA isolated from jellyfish or Auquorea victoria, fused to GPR52 at the C-terminus to fit the translation frame. In this case, a fragment excised from GFP expression vector pQBI25 (Takara Shuzo) was used as GFP cDNA. In GPR52, its termination codon was modified by PCR to recognition sequence with restriction enzyme NheI, and the GFP fragment was ligated thereto, which was inserted into the expression vector pAKKO-111H [Biochem. Biophys. Acta, 1219, 251 (1994)] and transfected to CHO cells in a conventional manner to obtain the human GPR52-GFP expression CHO cell line. The human GPR52-GFP expression CHO cells were suspended in a growth medium [αMEM (containing nucleic acids: Invitrogen) supplemented with 10% fetal calf serum (GIBCO BRL)] and plated on a Lab-TekII cover glass chamber with 4 chambers (Nalgen Nunc) in a concentration of 0.6×10^5 cells/chamber. […] In this case, GFP was excited at 488 nm.

GPR52 [5] = biological target: T1, GPR52; experiment: Increase of intracellular cAMP levels in human GPR52 expression CHO cell line (cAMP Screen Kit); design: expressed in transfected cells; settings: reserpine in various concentrations, 30 minutes; negative controls Mock CHO and TGR5 CHO cell lines (FIG. 3)
Experimental: The human GPR52 expression CHO cells obtained in REFERENCE EXAMPLE 1 was washed in the assay medium (HBSS (Gibco BRL) supplemented with 0.2 mM isobutylmethylxanthine), followed by incubation for 30 minutes under conditions at 37° C. in 5% CO2. Then, reserpine diluted in the assay medium was added in various concentrations. The assay buffer alone was used as a Base. After the addition, incubation was conducted for 30 minutes under conditions at 37° C. in 5% CO2. The culture supernatant was discarded and the intracellular cAMP level was assayed on the plate reader (EnVision, Perkin-Elmer) in accordance with the protocol of cAMP Screen Kit (Applied Biosystems). As negative controls, the CHO cell line (Mock) wherein no exogenous receptor was expressed and the CHO cell line (TGR5) wherein Gs-conjugated receptor TGR5 was stably expressed were co-assayed.

| Structure (SMILES) | calcium level increase on addition after glutamate ([1]; 10 μM glutamate, then 10 μM Compound A during diminution of the calcium increase) | calcium level increase, compound alone without glutamate ([1]; 15 μM Compound A alone, glutamate not added) | phosphorylation (Ser897) of the NMDA-type glutamate receptor [2] | EC50 (GPR52 [3]) [nM] | calcium level increase (ratio of Fura-2 fluorescence) on addition after glutamate ([1]; 10 μM glutamate, then 0.2 mM methoctramine during diminution of the calcium increase, n=11 neurons (FIG. 4)) | calcium level increase (ratio of Fura-2 fluorescence), compound alone without glutamate ([1]; 0.2 mM methoctramine alone, glutamate not added beforehand, n=27 neurons (FIG. 5)) | intracellular calcium ion levels (GPR52 [4]) | internalization of GPR52-GFP fused protein (GFP fluorescence moved from cell membrane to cytoplasm) (human GPR52-GFP) | intracellular cAMP levels (GPR52 [5]) |
| --- | --- | --- | --- | --- | --- | --- | --- | --- | --- |
| Cc1ncc2c(n1)N(CCCN1CCNCC1)CCC2Nc1cccc(Oc2cccc(Cl)c2)c1.Cl.Cl.Cl.Cl (stereo not shown) [Compound A, N-[3-(3-chlorophenoxy)phenyl]-2-methyl-8-[3-(1-piperazinyl)propyl]-5,6,7,8-tetrahydropyrido[2,3-d]pyrimidine-5-amine tetrahydrochloride] | reactivated to induce the calcium level increase | any increase in calcium levels was not observed | induced phosphorylation (Ser897) | 2100 |  |  |  |  |  |
| COc1ccccc1CNCCCCCCNCCCCCCCCNCCCCCCNCc1ccccc1OC [methoctramine] |  |  |  |  | reactivated to induce the calcium level increase | any increase in calcium levels was not observed | increased dose-dependently |  |  |
| COC(=O)[C@H]1[C@H]2C[C@@H]3c4[nH]c5cc(OC)ccc5c4CCN3C[C@H]2C[C@@H](OC(=O)c2cc(OC)c(OC)c(OC)c2)[C@@H]1OC [reserpine] |  |  |  |  |  |  | increased dose-dependently | internalization occurred | detected dose-dependently only in the human GPR52 expression CHO cell line |
